Patent US9663800B2, “Alkane exporter and its use” (Nanyang Technological University, priority 2012, dated 2017)

Legend:
[1] = tested on: ABC2 mRNA; experiment: Quantitative RT-PCR of ABC2 transcripts after alkane treatment; assay type: cell-based; conditions: Y. lipolytica CLIB122, 24 h alkane treated vs. untreated, normalized to actin, p<0.05
From the text: FIG. 3. mRNA transcripts levels of ABC2 and ABC3 in Y. lipolytica. Quantitative RT-PCR analysis of ABC2 (A) and ABC3 (B) in Y. lipolytica cells corresponding to treatment with octane, nonane, decane, undecane and dodecane (C8-C12). Each value of qRT-PCR was normalized to β-actin expression levels and expressed as the fold change relative to the levels detected in control samples, which were cells without alkane treatment and set equal to 1. Error bars represent the SD of triplicate.
To assess whether ABC1, ABC2, ABC3 and ABC4 are involved in alkane transport in Y. lipolytica, we analysed the effects of alkanes with different chain length (C8-C12) on the transcription levels of these four ABC transporter genes using quantitative RT-PCR.
Total RNA samples from 24 h alkane treated and untreated Y. lipolytica CLIB122 cells were prepared using RNeasy Mini Kit (Qiagen), followed by cDNA synthesis using H minus Reverse transcriptase kit (Fermentas). Quantitative RT-PCR analysis was performed on a Bio-Rad iQ5 real-time PCR detection system using SsoFast EvaGreen Supermix kit (Bio-Rad). The actin gene (YALI0D08272g) was used as reference gene for Y. lipolytica. Relative mRNA levels were derived using comparative CT method.

[2] = tested on: S. cerevisiae BY4741; experiment: Alkane susceptibility test in liquid culture; assay type: cell-based, Saccharomyces cerevisiae; conditions: control cells with empty plasmid, 48 hr, 28° C.
Method: FIG. 2. Alkane susceptibility test for S. cerevisiae. The alkane susceptibility was tested in cells expressing ABC2/3 or with empty plasmid. (A) Alkane susceptibility test on agar plate. Serial dilutions of cells expressing ABC2/3 were spotted on agar plates with alkanes (decane, undecane) as vapour phase. Plates were incubated at 28° C. for 2 days. (B) Alkane susceptibility test in liquid culture. Overnight cell culture was diluted into induction medium (final OD600=0.4) with different alkanes (decane & undecane) concentrations. The plates were incubated for 48 hr at 28° C. The OD600 value of each sample was determined and plotted against its corresponding alkane concentration. Symbols for strains are: control sample with empty plasmid (open circle), cells expressing ABC2 (filled circle), cell expressing ABC3 (filled triangle).
Overnight culture was diluted into 5 ml induction medium in 50 ml glass bottle (Sigma) at an initial OD600 of 0.4. Alkanes were added as different final concentration. Bottles were sealed tightly with butyl rubber stopper (Sigma) and silver aluminum seal (Sigma). Liquid culture was performed at 28° C. with shaking. Growth was monitored by measuring the OD600 at different time point. Cell culture used for time point OD checking was collected from the glass bottle using needle and syringe.
To further analyze the effect of ABC2 and ABC3 toward decane and undecane, alkane susceptibility tests in liquid culture were conducted. […] With the expression of ABC2, decane tolerance was boosted about 80-fold (20% vs. 0.25% decane) and cells can survive in 20% undecane. For ABC3, decane tolerance is increased slightly by about 3-fold (0.75% vs. 0.25% decane) and cells are resistant to 20% undecane. It is apparent that the expression of ABC2 and ABC3 transporters improved the tolerance toward C10 and C11 alkanes.

CCCCCCCC [octane]
mRNA levels of ABC2 [1]: significantly increased

CCCCCCCCCCC [undecane]
alkane concentration causing a significant decrease in viability of the control cells [2]: 20% | mRNA levels of ABC2 [1]: significantly increased
